In US6995135B2, “Peptides and peptidomimetics having anti-proliferative activity and/or that augment nucleic acid damaging agents or treatments” (priority 2002, dated 2006):
Like-named read-outs stand apart in the source and are kept apart here. Square brackets hold non-standard residues; d marks the D form. Peptide text beside a SMILES is read from it. dPhe(4-NO2) = N[C@H](Cc1ccc([N+](=O)[O-])cc1)C(=O)O; dPhe(F5) = N[C@H](Cc1c(F)c(F)c(F)c(F)c1F)C(=O)O; dBpa = N[C@H](Cc1ccc(C(=O)c2ccccc2)cc1)C(=O)O; dCha = N[C@H](CC1CCCCC1)C(=O)O

How the values were obtained:
[1] = Maximal tolerated dose in mouse by single injection; settings: in vivo, observed for a week
Jurkat cells [2] = experiment: M phase checkpoint abrogation / non specific toxicity in colchicine treated Jurkat cells, flow cytometry; type: cell-based; settings: with 5 μg/ml colchicine, 24 hours
Description: Cell-cycle analysis The cell cycle status of the cells treated with bleomycin or adriamcin were analyzed by flow cytometry as described by Kawabe (1997) Nature 385:454–458. In brief, two million cells were re-suspended and incubated in 200 μul Krishan's solution (0.1% Sodium citrate, 50 μg/ml PI, 20 μg/ml RNase A and 0.5% NP-40) for 1 hr at 4° C. and analyzed by a flow cytometry, FACScan™ (Beckton Dickinson, Mountain View, Calif.) with the program CELLQuest™ (Beckton Dickinson).
Flow cytometry analysis of M phase checkpoint abrogation by the compounds was performed using human T cell leukemia Jurkat cell line treated with colchicine (5 μg/ml or 0.5 μg/ml) and various doses of peptide/peptidomimetics for 24 hr (FIG. 12). The DNA of the cells was stained and analyzed by flow cytometry as described above.
The “Appearance of side effect when used alone” indicates the peptide/peptidomimetic dose that produced Jurkat cell cycle disturbance, i.e., the appearance of significant amounts of SubG1 cells (dead cells) or cells in which the DNA content of each varies more than usual. […]
A comparison between G2 checkpoint abrogating activity and non specific toxicity (M checkpoint abrogation) by CB501 was performed. […] The DNA amount in each of the treated cells was analyzed by flow cytometry, as previously described.

Jurkat cells [3] = experiment: G2 checkpoint abrogation in bleomycin treated Jurkat cells, flow cytometry; type: cell-based, human; settings: for G2 abrogating dose: Jurkat cells, with 40 μg/ml bleomycine, 24 hours, dose with detectable G2 checkpoint abrogation; for G2 checkpoint abrogating activity (in words): bleomycin (40 μg/ml) treated Jurkat cells, % G2/M cells
Description: Flow cytometry analysis of G2 checkpoint abrogation was performed using human leukemia derived Jurkat cell line. In brief, cultured cells were treated with various doses of peptide/peptidomimetic and 40 μg/ml bleomycine for 24 hr. The DNA of the cells was stained with propidium iodide and analyzed by flow cytometry.
The “Appearance of side effect when used alone” indicates the peptide/peptidomimetic dose that produced Jurkat cell cycle disturbance, i.e., the appearance of significant amounts of SubG1 cells (dead cells) or cells in which the DNA content of each varies more than usual. […] The “G2 abrogating dose” indicates the peptide/peptidomimetic dose with 40 μg/ml bleomycine that produced detectable G2 checkpoint abrogation activity following treatment for 24 hours. The “Appearance of side effect when used with colchicine” indicates the peptide/peptidomimetic dose with 5 μg/ml colchicine that produced Jurkat cell cycle disturbance following treatment for 24 hours.

[4] = molecular target: T1, recombinant human full length Chk1 (Homo sapiens, UniProt O14757); experiment: In vitro kinase inhibition (CycLex), phosphorylation of serine 216 on GST-Cdc25C; type: biochemical
T1 construct: baculovirus derived recombinant human full length Chk1 with histidine tag; histidine tag; host or cells: baculovirus system (insect cells)
T1 sequence (O14757 1-476): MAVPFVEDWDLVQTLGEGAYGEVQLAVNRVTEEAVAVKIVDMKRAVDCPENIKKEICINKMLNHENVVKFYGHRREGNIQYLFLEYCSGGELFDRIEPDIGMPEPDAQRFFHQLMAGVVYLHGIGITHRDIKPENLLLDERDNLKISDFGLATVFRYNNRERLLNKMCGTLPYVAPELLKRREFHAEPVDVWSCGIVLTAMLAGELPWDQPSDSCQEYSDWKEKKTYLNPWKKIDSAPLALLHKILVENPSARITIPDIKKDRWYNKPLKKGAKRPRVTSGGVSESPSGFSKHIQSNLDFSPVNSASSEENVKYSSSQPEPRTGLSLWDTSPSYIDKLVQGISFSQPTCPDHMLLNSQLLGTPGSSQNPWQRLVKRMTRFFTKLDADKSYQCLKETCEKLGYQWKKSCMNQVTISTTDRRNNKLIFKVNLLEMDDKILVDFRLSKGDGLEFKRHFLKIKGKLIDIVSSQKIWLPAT
Description: (§1) In vitro kinase inhibition analysis was performed by CycLex, Co. Ltd., Nagano, Japan. Briefly, baculovirus derived recombinant human full length Chk1 with histidine tag or E. Coli derived recombinant human full length Chk2 fused with GST were used as kinases. E. Coli derived recombinant GST-Cdc25C (amino acis 167–267) was used as a substrate. Reaction conditions were 20 mM Hepes-KOH (pH7.5), 1 mM DTT, […] BSA, 10 mM MgCl2 and […] ATP at 30 degree for 60 min. The phosphorylation of serine 216 on GST-Cdc25C was detected by anti-Cdc25C-phosphorylated S216 antibody with enzyme linked immune assay.

[5] = molecular target: T2, recombinant human full length Chk2 (Homo sapiens, UniProt O96017); experiment: as above; type: biochemical
T2 construct: E. Coli derived recombinant human full length Chk2 fused with GST; host or cells: E. coli
T2 sequence (O96017 whole entry, the tested form may be a part): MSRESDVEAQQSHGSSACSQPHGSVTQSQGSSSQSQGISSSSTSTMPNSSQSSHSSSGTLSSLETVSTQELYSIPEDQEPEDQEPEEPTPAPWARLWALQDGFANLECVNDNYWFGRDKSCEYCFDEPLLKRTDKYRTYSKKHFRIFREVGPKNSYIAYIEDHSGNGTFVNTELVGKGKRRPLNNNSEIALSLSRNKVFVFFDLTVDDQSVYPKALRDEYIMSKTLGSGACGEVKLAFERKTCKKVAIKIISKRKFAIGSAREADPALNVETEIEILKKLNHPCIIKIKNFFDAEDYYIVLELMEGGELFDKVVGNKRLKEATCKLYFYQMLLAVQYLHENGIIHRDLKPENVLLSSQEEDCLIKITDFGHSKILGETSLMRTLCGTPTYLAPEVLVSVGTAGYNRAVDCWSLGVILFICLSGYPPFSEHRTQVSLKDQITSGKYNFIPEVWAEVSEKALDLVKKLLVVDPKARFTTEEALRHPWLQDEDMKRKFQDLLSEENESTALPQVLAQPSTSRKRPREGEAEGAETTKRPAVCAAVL
Description: as §1

[6] = Human serum treatment analysis, residual G2 checkpoint abrogating activity; type: in vitro ADME; settings: d-type amino acid peptides compared with l-type peptide such as CBP413
Description: Serum analysis was performed to determine the stability of peptides in mouse and human serum. Briefly, peptides (10 mM or 2.5 mM) were incubated with freshly prepared human serum at 37 degrees for 1 hr. CBP50 (10 mM) was incubated with freshly prepared mouse serum for 1 hr at 37 degree. Jurkat cells were treated with the serum with or without peptides and bleomycin (40 μg/ml) and incubated for 24 hr. The population of G2 phase cells was determined by flow cytometry as previously described. The residual G2 checkpoint abrogating activity of serum treated peptides were determined by comparing the % G2 cells of the treated serum and the standard curve produced with medium treated peptides, bleomycin and Jurkat cells (Table 5A).

For `N=C(N)NCCC[C@H](NC(=O)CNC(=O)[C@@H](N)Cc1ccc(O)cc1)C(=O)N[C@@H](CCCCN)C(=O)N[C@@H](CCCCN)C(=O)N[C@@H](CCCNC(=N)N)C(=O)N[C@@H](CCCNC(=N)N)C(=O)N[C@@H](CCC(N)=O)C(=O)N[C@@H](CCCNC(=N)N)C(=O)N[C@@H](CCCNC(=N)N)C(=O)N[C@@H](CCCNC(=N)N)C(=O)N[C@@H](CC1CCCCC1)C(=O)N[C@@H](Cc1c(F)c(F)c(F)c(F)c1F)C(=O)N[C@@H](CCCNC(=N)N)C(=O)N[C@@H](CO)C(=O)N1CCC[C@H]1C(=O)N[C@@H](CO)C(=O)N[C@@H](Cc1ccc(O)cc1)C(=O)N[C@@H](Cc1ccc(O)cc1)C(=O)O` [CBP413, (l-Tyr)(l-Gly)(l-Arg)(l-Lys)(l-Lys)(l-Arg)(l-Arg)(l-Gln)(l-Arg)(l-Arg)(l-Arg)(l-Cha)(l-Phe-2,3,4,5,6-F)(l-Arg)(l-Ser)(l-Pro)(l-Ser)(l-Tyr)(l-Tyr)], which MTD ([1]; ip, single intra-peritoneal injection, read-out: MTD (ip)) is on record?
Its MTD is 147 mg/kg.

What about the MTD ([1]; single intravenous injection, read-out: MTD (iv)) of the same compound?
The MTD was 14 mg/kg.

For `N=C(N)NCCC[C@H](NC(=O)CNC(=O)[C@@H](N)Cc1ccc(O)cc1)C(=O)N[C@@H](CCCCN)C(=O)N[C@@H](CCCCN)C(=O)N[C@@H](CCCNC(=N)N)C(=O)N[C@@H](CCCNC(=N)N)C(=O)N[C@@H](CCC(N)=O)C(=O)N[C@@H](CCCNC(=N)N)C(=O)N[C@@H](CCCNC(=N)N)C(=O)N[C@@H](CCCNC(=N)N)C(=O)N[C@@H](CC1CCCCC1)C(=O)N[C@@H](Cc1c(F)c(F)c(F)c(F)c1F)C(=O)N[C@@H](CCCNC(=N)N)C(=O)N[C@@H](CO)C(=O)N1CCC[C@H]1C(=O)N[C@@H](CO)C(=O)N[C@@H](Cc1ccc(O)cc1)C(=O)O` [CBP420, (l-Tyr)(l-Gly)(l-Arg)(l-Lys)(l-Lys)(l-Arg)(l-Arg)(l-Gln)(l-Arg)(l-Arg)(l-Arg)(l-Cha)(l-Phe-2,3,4,5,6-F)(l-Arg)(l-Ser)(l-Pro)(l-Ser)(l-Tyr)], which “Appearance of side effect when used with Colchicine” value (Jurkat cells [2]) is on record?
The value was “≧50 μM”.

For `N=C(N)NCCC[C@@H](NC(=O)[C@@H](CCCCN)NC(=O)[C@@H](CCCCN)NC(=O)[C@@H](CCCNC(=N)N)NC(=O)[C@@H](CCCNC(=N)N)NC(=O)[C@@H](CCC(N)=O)NC(=O)[C@@H](CCCNC(=N)N)NC(=O)[C@@H](CCCNC(=N)N)NC(=O)[C@@H](CCCNC(=N)N)NC(=O)[C@@H](CC1CCCCC1)NC(=O)[C@@H](Cc1c(F)c(F)c(F)c(F)c1F)NC(=O)[C@@H](CCCNC(=N)N)NC(=O)[C@@H](CO)NC(=O)CNC(=O)[C@@H](CO)NC(=O)[C@@H](Cc1ccc(O)cc1)NC(=O)[C@H](N)Cc1ccc(O)cc1)C(=O)NCC(=O)N[C@H](Cc1ccc(O)cc1)C(=O)O` [CBP450, (d-Tyr)(d-Tyr)(d-Ser)(l-Gly)(d-Ser)(d-Arg)(d-Phe-2,3,4,5,6-F)(d-Cha)(d-Arg)(d-Arg)(d-Arg)(d-Gln)(d-Arg)(d-Arg)(d-Lys)(d-Lys)(d-Arg)(l-Gly)(d-Tyr)] (H-[dY][dY][dS]G[dS][dR][dPhe(F5)][dCha][dR][dR][dR][dQ][dR][dR][dK][dK][dR]G[dY]-OH; N-terminus and C-terminus assumed), which G2 abrogating dose (Jurkat cells [3]) is on record?
Its G2 abrogating dose is “≧0.78 μM”.

Which G2 abrogating dose (Jurkat cells [3]) does the source give for `N=C(N)NCCC[C@@H](NC(=O)[C@@H](CCCNC(=N)N)NC(=O)[C@@H](CCC(N)=O)NC(=O)[C@@H](CCCNC(=N)N)NC(=O)[C@@H](CCCNC(=N)N)NC(=O)[C@@H](CCCNC(=N)N)NC(=O)[C@@H](CC1CCCCC1)NC(=O)[C@@H](Cc1c(F)c(F)c(F)c(F)c1F)NC(=O)[C@@H](CO)NC(=O)[C@@H](Cc1c[nH]c2ccccc12)NC(=O)[C@@H](CO)NC(=O)[C@@H](Cc1ccc(C(=O)c2ccccc2)cc1)NC(=O)[C@H](N)Cc1ccc(O)cc1)C(=O)O` [CBP500, (d-Tyr)(d-Bpa)(d-Ser)(d-Trp)(d-Ser)(d-Phe-2,3,4,5,6-F)(d-Cha)(d-Arg)(d-Arg)(d-Arg)(d-Gln)(d-Arg)(d-Arg)] (H-[dY][dBpa][dS][dW][dS][dPhe(F5)][dCha][dR][dR][dR][dQ][dR][dR]-OH; N-terminus and C-terminus assumed) here?
Its G2 abrogating dose is “≧0.39 μM”.

Which results are given for `N=C(N)NCCC[C@@H](NC(=O)[C@@H](CCCNC(=N)N)NC(=O)[C@@H](CCC(N)=O)NC(=O)[C@@H](CCCNC(=N)N)NC(=O)[C@@H](CCCNC(=N)N)NC(=O)[C@@H](CCCNC(=N)N)NC(=O)[C@@H](CC1CCCCC1)NC(=O)[C@@H](Cc1c(F)c(F)c(F)c(F)c1F)NC(=O)[C@@H](CC(=O)O)NC(=O)[C@@H](CO)NC(=O)[C@@H](Cc1c[nH]c2ccccc12)NC(=O)[C@@H](CO)NC(=O)[C@H](N)Cc1ccc(C(=O)c2ccccc2)cc1)C(=O)O` [CBP506, (d-Bpa)(d-Ser)(d-Trp)(d-Ser)(d-Asp)(d-Phe-2,3,4,5,6-F)(d-Cha)(d-Arg)(d-Arg)(d-Arg)(d-Gln)(d-Arg)(d-Arg)] (H-[dBpa][dS][dW][dS][dD][dPhe(F5)][dCha][dR][dR][dR][dQ][dR][dR]-OH; N-terminus and C-terminus assumed)?
IC50 [4]: 37.6 µM; IC50 [5]: 67 µM

For `N=C(N)NCCC[C@@H](NC(=O)[C@@H](CCCNC(=N)N)NC(=O)[C@@H](CCC(N)=O)NC(=O)[C@@H](CCCNC(=N)N)NC(=O)[C@@H](CCCNC(=N)N)NC(=O)[C@@H](CCCNC(=N)N)NC(=O)[C@@H](CC1CCCCC1)NC(=O)[C@@H](Cc1ccc([N+](=O)[O-])cc1)NC(=O)[C@@H](CO)NC(=O)[C@@H](Cc1c[nH]c2ccccc12)NC(=O)[C@@H](CO)NC(=O)[C@H](N)Cc1ccc(C(=O)c2ccccc2)cc1)C(=O)O` [CBP603, (d-Bpa)(d-Ser)(d-Trp)(d-Ser)(d-Phe4No2)(d-Cha)(d-Arg)(d-Arg)(d-Arg)(d-Gln)(d-Arg)(d-Arg)] (H-[dBpa][dS][dW][dS][dPhe(4-NO2)][dCha][dR][dR][dR][dQ][dR][dR]-OH; N-terminus and C-terminus assumed), which “Stability in serum (in words)” value [6] is on record?
The value was “more stable in serum”.

Which “G2 checkpoint abrogating activity (in words)” value (Jurkat cells [3]) does the source give for “(d-Arg)(d-Arg)(d-Arg)(d-Arg)(d-Bpa)(d-Arg)(d-Trp)(d-Arg)(d-Phe-2,3,4,5,6-F)(d-Cha) [CBP702]” here?
The value was “retain G2 checkpoint abrogating activity comparable to other peptides having significant G2 checkpoint abrogating activity”.

For “(d-Arg)(d-Arg)(d-Arg)(d-Bpa)(d-Arg)(d-Arg)(d-Arg)(d-Phe-2,3,4,5,6-F)(d-Cha) [CBP703]”, which “G2 checkpoint abrogating activity (in words)” value (Jurkat cells [3]) is on record?
Its value is “retain G2 checkpoint abrogating activity comparable to other peptides having significant G2 checkpoint abrogating activity”.

For “(d-Arg)(d-Arg)(d-Arg)(d-Bpa)(d-Arg)(d-Trp)(d-Arg)(d-Phe-2,3,4,5,6-F)(d-Cha) [CBP701]”, which “G2 checkpoint abrogating activity (in words)” value (Jurkat cells [3]) is on record?
The value was “retain G2 checkpoint abrogating activity comparable to other peptides having significant G2 checkpoint abrogating activity”.

Which “G2 checkpoint abrogating activity (in words)” value (Jurkat cells [3]) does the source give for “(d-Arg)(d-Arg)(d-Bpa)(d-Arg)(d-Arg)(d-Arg)(d-Phe-2,3,4,5,6-F)(d-Cha) [CBP700]” here?
Its value is “retain G2 checkpoint abrogating activity comparable to other peptides having significant G2 checkpoint abrogating activity”.
